Experimental data reported in patent US10131635B2, “Compositions and methods of using the compositions for plaque softening” (ALUMEND, LLC, priority 2013, dated 2018).

Columns and labels:
[1] = tested on: calcified plaque in postmortem diseased femoral arteries; assay: IVUS analysis of human cadaveric arterial samples (echogenicity)
Description: The following equipment was used in this Example: IVUS, Boston Scientific iLab 120 CARTR, UPN Product number: H749iLab120CARTRO, manufactured April 2011, Serial number 7347. The software is iReview version 1.0. The catheter is Boston Scientific Atlantis SR Pro 40 MHz Coronary Imaging Catheter, catalog number 38942, 3.6 F×135 cm.
IVUS images have identified different types of plaque, e.g., soft, mixed, hard, and calcified. M. Sahara, et al., “Soft Plaque Detected on Intravascular Ultrasound Is the Strongest Predictor of In-Stent Restenosis: an Intravascular Ultrasound Study,” European Heart Journal, 25: 2026-2033 (2004), the disclosure of which is hereby incorporated by reference. For example, calcified plaque has been identified by two characteristics, i.e., a high echogenicity resulting in an intense reflection (bright white) and the presence of an acoustic shadow behind the plaque because the ultrasound cannot penetrate the calcified plaque.
Postmortem diseased femoral arteries (both left and right) were received approximately 16 hours after the time of death. The samples were inspected to assess the level of disease. When palpated both the right and left arteries were extremely hard and rigid throughout the entire length of both arteries. Occlusion was visually judged as ranging from 20-60%. The artery was placed in PBS and IVUS pullback (0.5 mm/s) was completed three times (PRE 1, PRE 2, PRE 3). […] The artery was thoroughly rinsed with PBS to remove any excess plaque-softening compound. The artery was then placed into PBS and an IVUS pullback was conducted three times (SOAK 1, SOAK 2, SOAK 3). A balloon angioplasty catheter was placed into the artery and inflated to the reference vessel diameter (RVD) without any overstrech. A radially emitting light fiber was inserted into the catheter and centered in the angioplasty balloon. The composition was activated by exposure to blue light (447 nm) at an intensity of 1800 mW for 60 seconds. The balloon catheter was removed and an IVUS pullback was completed three times (POST 1, POST 2, POST 3).
Each frame of each pullback (PRE 1, PRE 2, PRE 3, SOAK 1, SOAK 2, SOAK 3, POST 1, POST 2, POST 3) was analyzed and calcified plaque was identified including the acoustic shadow behind each area of plaque. FIGS. 15a and 15b are the IVUS images from frame 921 of PRE 1 and illustrate the existence of plaque. For each frame, the intensity of each gray pixel (based upon 255 shades of gray, “AVI” format and 521×521 pixels) within the arterial wall was determined. FIG. 17 is a histogram illustrating the gray scale of frame 921, PRE 1, wherein the y-axis is the pixel count and the x-axis is the pixel intensity. So, for example, there were a lot of pixels having a pixel intensity of 16 and very few pixels having a pixel intensity of 168. It is known that the relative amount of hypo-echogenic and hyper-echogenic reflections can be used to measure the change in calcified plaque. See S. Brugaletta, et al., “Serial In Vivo Intravascular Ultrasound-Based Echogenicity Changes of Everolimus-eluting Bioresorbable Vascular Scaffold During the First 12 Months After Implantation,” JACC: Cardiovascular Interventions, 4 (12):1281-1289 (2011), the disclosure of which is hereby incorporated by reference. For example, it is known that pixels with a gray scale intensity of 92 or lower were judged to be hypo-echogenic and those with a gray scale intensity of 93 or higher were judged to be hyper-echogenic. To be clear, in the instant Example, the mean gray value of the adventitia was used to classify tissue components as either hypo- or hyper-echogenic. One of ordinary skill in the art could easily determine the gray scale threshold for any data set in order to classify tissue components as either hypo- or hyper-echogenic.
The pixel intensity of the entire IVUS pullback data was analyzed as a single data set. […]

[2] = Linker solution hydrolysis (release of drug mimic, HPLC, first order rate constant); format: physicochemical; conditions: 37° C.
Protocol: The hydrolysis rate of a linker was studied without attachment to a naphthalimide compound or tissue attachment under physiological conditions. The work verified the expected hydrolysis rate and when combined with ex vivo data allows the influence of the tissue on the hydrolysis rate to be determined.
A 20 mg/mL stock solution of a drug mimic, such as an FITC derivative, was prepared by weighing out approximately 20 mg of material and diluting with 1 mL of H20. The release rate of each compound, the free mimic from its respective linker, was studied in duplicate as a function of time and pH (phosphate buffered saline (PBS) at pH=1, pH=7.4, and pH=10). The starting concentration for each preparation was 400 μg/mL of drug mimic with attached linker (20 μL of stock solution diluted with 980 μL of hydrolysis PBS). In order to more accurately mimic clinical conditions samples were prepared and stored in a 37° C. oven with slow agitation using a rotating mixer until analyzed using HPLC. The concentration of the target complex was determined in duplicates at multiple time points (t=0, 8, 24, 48, 72, 144, 216 hours) using the HPLC conditions below and quantitation using a standard curve. A 2 mg/mL stock solution of the target complex was prepared by weighing out approximately 20 mg of target complex and diluting with 10 mL of H2O. The following concentrations from the stock solution were prepared by performing serial dilutions in H2O:
Quantitation using a standard curve was used to determine the amount of drug mimic released (μg) at each time point and duplicate sample preparations at each time point were averaged. […] The detection limit of the method was 1 μg/mL. The standard curve for 3-phenylpropanol was also linear over the range of 1 μg/mL to 100 μg/mL with a detection limit of the method at 1 μg/mL.
Using the HPLC release data calculated for the free Bn and 3PP, shown below, kinetic curves were plotted (concentration vs time) for each compound using PSI Plot. The concentration was fit to a first order kinetic equation, where CT=CF−Cce^−kt (CT is the concentration at each time point (μg), CF is the final concentration (μg), Cc is the change in concentration (μg), and k is the rate constant (hr^−1). If the reaction rate didn't display first order kinetics (ie: there was a systematic deviation between the experimental points and the calculated rate constant) other kinetic models were examined. Typically data was collected until at least 90% of the expected product was released. A sample kinetic curve is shown in FIG. 15B.
The HPLC method was able to determine the identity of each compound and the component linker and drug mimic by the retention time as shown in the Table below. • Analytical Column: Alltima HP Rocket C18 3μ 53 mm×7 mm • Mobile Phase: A: 0.1% Trifluoroacetic acid(aq) (TFA), • B: 9:1 Acetonitrile:Water (0.1% TFA) • Gradient: 95% A hold for 1 minute, then ramp to 65% B at 7 minutes, hold for 0.5 minutes • (Equilibration time 5 minutes) • Detector: PDA detector at 440 nm Fluorescence detector excitation wavelength at nm emission wavelength at nm • Injection Volume: 20 μL • Flow Rate: 2.5 mL/min
Using the concentration versus time data, a rate constant was calculated for each compound at various pHs. […] The enhanced rate for the hydrolysis of the Gly/Bn is likely due to the formation of an internal 5 membered ring that would be autocatalytic.

artery = assay: Arterial compression by other photoactivated material; conditions: FIG. 13
Protocol: Singlet oxygen generating species, such as Rose Bengal, riboflavin, and methylene blue were tested to determine if they would be effective at arterial compression.

In the case of `Nc1ccc2c3c(cccc13)C(=O)NC2=O` [4-amino-1,8-naphthalimide], the “flexibility of artery after treatment” value ([1]; after soak, balloon and light activation) is reported as “more flexible and softer”, the “Hypo-Echogenic pixels/Hyper-Echogenic pixels” value ([1]; entire IVUS pullback data, POST (soak plus balloon and 447 nm 1800 mW 60 seconds)) is reported as 5.011 and the “Hypo-Echogenic pixels/Hyper-Echogenic pixels” value ([1]; entire IVUS pullback data, SOAK (2.5 mM, 5 minutes)) is reported as 4.699. For the same compound, the “Hypo-Echogenic pixels/Hyper-Echogenic pixels” value ([1]; frame 921, POST) was 12.556, the “Hypo-Echogenic pixels/Hyper-Echogenic pixels” value ([1]; frame 921, SOAK) was 7.500 and the “Hypo-Echogenic pixels/Hyper-Echogenic pixels” value ([1]; frame 2925, POST) was 21.050. For the same compound, the “Hypo-Echogenic pixels/Hyper-Echogenic pixels” value ([1]; frame 2925, SOAK) was 9.043.

With `NCCCC(=O)OCc1ccccc1` [GABA/Bn, Benzyl GABA] the “hydrolysis rate constant k” value ([2]; pH 1, PBS) was 0.026 h⁻¹, the “hydrolysis rate constant k” value ([2]; pH 7.4, PBS) was 0.011 h⁻¹ and the “hydrolysis rate constant k” value ([2]; pH 10, PBS) was 0.226 h⁻¹.

In the case of `Cc1cc2nc3c(=O)[nH]c(=O)nc-3n(C[C@H](O)[C@H](O)[C@H](O)CO)c2cc1C` [riboflavin], the “efficacy at arterial compression” value (artery) is reported as “No efficacy was observed”.

In the case of `NCC(=O)OCc1ccccc1` [Gly/Bn, Benzyl Glycinate], the “hydrolysis rate constant k” value ([2]; pH 1, PBS) is reported as 0.002 h⁻¹, the “hydrolysis rate constant k” value ([2]; pH 7.4, PBS) is reported as 0.311 h⁻¹ and the “hydrolysis rate constant k” value ([2]; pH 10, PBS) is reported as 0.156 h⁻¹.

In the case of `O=C([O-])c1c(Cl)c(Cl)c(Cl)c(Cl)c1-c1c2cc(I)c(=O)c(I)c-2oc2c(I)c([O-])c(I)cc12.[Na+].[Na+]` [Rose Bengal], the “efficacy at arterial compression” value (artery) is reported as “No efficacy was observed”.

With `CN(C)c1ccc2nc3ccc(=[N+](C)C)cc-3sc2c1` [methylene blue] the “efficacy at arterial compression” value (artery) was “No efficacy was observed”.

For `NCCCC(=O)OCCCc1ccccc1` [GABA/3PP, 3-Phenylpropyl GABA], the “hydrolysis rate constant k” value ([2]; pH 1, PBS) was 0.034 h⁻¹, the “hydrolysis rate constant k” value ([2]; pH 7.4, PBS) was 0.010 h⁻¹ and the “hydrolysis rate constant k” value ([2]; pH 10, PBS) was 0.124 h⁻¹.

In the case of `NCC(=O)OCCCc1ccccc1` [Gly/3PP, 3-Phenylpropyl Glycinate], the “hydrolysis rate constant k” value ([2]; pH 1, PBS) is reported as 0.004 h⁻¹, the “hydrolysis rate constant k” value ([2]; pH 7.4, PBS) is reported as 0.082 h⁻¹ and the “hydrolysis rate constant k” value ([2]; pH 10, PBS) is reported as 0.155 h⁻¹.
